Reference: patent publication EP1105728B1, “MODULATING MULTIPLE LINEAGE KINASE PROTEINS” (CEPHALON, INC., priority 1998, dated 2000)
Like-named read-outs stand apart in the source and are kept apart here.

Key:
Assay type in all cases: cell-based
[1] = system: motoneurons; assay: Survival of rat spinal cord cultures enriched for motoneurons (calcein AM); conditions: data not shown
Method: Spinal cords were dissected from Sprague-Dawley rat fetuses (Charles River Laboratories, Wilmington. MA) of embryonic age (E) 14.5-15. […] Cells were seeded onto 96-well plates previously coated with poly-1-omithine and laminin (5 ug/ml each) at a density of 6 x 10^4 cells/cm^2 in chemically defined serum-free N2 medium (Bottenstein, et al., 1979, supra). In order to separate attachment from survival effects, addition of compounds to cultures was made after an initial attachment period of 1-3 h. Neuronal survival was assessed after 4 d by using calcein AM (Molecular Probes, Eugene, OR) in a fluorometric viability assay (Bozyczko-Coyne, et al., 1993, supra). Microscopic counts of neurons correlated directly with relative fluorescence values. In brief, culture medium was serially diluted in DPBS (Dulbeccos phosphate buffered saline) and a final concentration of 6 uM calcein AM stock was then added to each 96-well. The plates were incubated for 30 min at 37°C, followed by serial dilution washes in DPBS. The fluorescent signal was read using a plate-reading fluorimeter from Millipore (Cytofluor 2350) at excitation=485 nm and emission = 538 nm. […] Linearity of the fluorescence signal was verified for the concentration and incubation time for the range of cell densities in these experiments. […]

[2] = system: sympathetic ganglion neurons (SG); assay: Survival of chick embryonic sympathetic ganglion neurons
Method: (§1) Paravertebral sympathetic ganglia (SG; embryonal day 12 (E12)), dorsal root ganglia (DRG;E9), and ciliary ganglia (CG;E8) were dissected from chick embryos at the indicated embryonic day as described in Lindsay, et al., Dev. Biol., 1985, 112, 319-328, which is incorporated herein by reference in its entirety. After trypsinization and dissociation, the nerve cell suspensions were plated onto polyomithine-laminin-coated culture dishes in Ham's F14 culture medium, supplemented with 10% horse serum. Immediately after plating, survival factors were added at the following concentrations: Nerve growth factor (NGF), 20 ng/ml; ciliary neutrophic factor (CNTF), 10 ng/ml. The cultures were maintained at 37° and 5% CO2 in a humidified environment.
Neurons were plated in 35 mm culture dishes with grids (Nunc). Selected areas of each dish comprising together about 10% of the surface scanned for the presence of phase bright cells immediately after plating and again after 48 h to assess survival percentages. Cell survival was confirmed by vital staining with trypan blue (not shown).

[3] = system: ciliary ganglion (CG) neurons; assay: Survival of chick embryonic ciliary ganglion neurons
Method: as §1
Neurons were plated in 35 mm culture dishes with grids (Nunc). […] Cell survival was confirmed by vital staining with trypan blue (not shown).

[4] = system: IL-1; assay: Induction of IL-1 by LPS in THP-1 cells (ELISA)
Method: THP-1 cells were grown in RPMI 1640 medium supplemented with 10% fetal bovine serum. LPS (E.coli serotype 0111.B4, TCA extracted) was purchased from Sigma and dissolved in PBS. ELISA kits for assaying IL-1 and TNF-α were purchased from Boerhinger-Mannheim and assays on THP-1 culture medium were performed as directed by the manufacturer. Standard curves according to directions were obtained with each assay.
Experiments were performed in 12 well culture plates with either 1 or 2 ml of THP-1 cells at 4 X 10^5 cells/ml. IL-1 and TNF-α were induced by the addition of LPS to the culture medium and the medium collected at various times thereafter for cytokine assay. Cells were removed by centrifugation and the supernatants frozen at -70°C until assay. To minimize costs experiments were performed in duplicate cultures and the duplicate supernatants were pooled after centrifugation. Each pooled supernatant was assayed in duplicate. Stock solutions of indolo- and fused pyrrolocarbazoles in 100% DMSO were diluted to the desired concentrations in either medium containing 10% fetal bovine serum or in medium containing 0.5 mg/ml BSA. Unless otherwise stated, compounds were added to the THP-1 cells 1 hr prior to the addition of LPS.

[5] = system: JNK; assay: JNK activity immunoprecipitated from THP-1 cells; conditions: Homo sapiens, read-out: THP-1 Cells JNK % inh. 500 nM
Method: Assays for JNK activity were performed after immunoprecipitating the JNK protein from an extract of lysed THP-1 cells. Pelleted THP-1 cells were lysed on ice for 15 min in 500 µl of Frac buffer (10 mM Tris-Hcl, pH 7.5,50 mM NaCl, 30 µM sodium pyrophosphate, 1 mg/ml BSA, 1% Triton-X-100). The extract was centrifuged for 10 min at 14K and 5 µl of JNK antibody (Santa Cruz) was added to the supernatant. The extract was rotated for 60 min at 4°C, 75 µl of washed protein A Sepharose (20% w/v in Frac) added and the extract rotated another 30 min to bind the antibody complex to the protein A Sepharose. The protein A Sepharose was washed twice with Frac buffer, once with 20 mM Hepes, pH 7.6, 20 mM MgCl2, 2 mM DTT, then incubated for 15 min at 30° C in 30 µl of kinase buffer (20 mM hepes, 20 mM MgCl2, 2 MM DTT, 1 µg recombinant c-jun, and 2 µM ATP-γ-^32P, 2 µCi. The reaction was terminated by the addition of 10 µl of 4X SDS gel loading buffer, heated for 3 min at 80° C, and the proteins were analyzed on a 10% SDS gel. The gel was dried, exposed to a Phosphorimager plate, and the radioactive bands were analyzed on a Phosphorimager.

[6] = system: IL-2; assay: Induction of IL-2 in Jurkat cells by anti CD3 and anti CD28 antibodies (ELISA); conditions: Homo sapiens
Method: Jurkat cells were grown in RPMI 1640 medium supplemented with 10% fetal bovine serum. TNF-α was from Promega and anti CD3 and anti CD28 antibodies were from Pharmigen. Jurkat experiments were done in 200 µl in a 96 well plate. IL-2 was measured with an ELISA kit purchased from Boehringer Mannheim. The antibodies to CD3 and CD28 were allowed to bind to the plastic of the 96 well plate (18 hr in PBS) prior to addition of the Jurkat Cells. Cells were treated with compounds 1 hr prior to adding to the antibody coated plate. Antibodies to CD3 and CD28 were used to activate the T cell receptor and induce IL-2. I1-2 was released from the Jurkat cells between 6 hr and 24 hr after initiation of induction (Fig. 23A). No IL-2 was made constitutively (Fig. 23A CNT). The effect of Compound III-3 (1 hr treatment with Compound III-3 prior to induction) on IL-2 induction was next assessed (Fig. 23B). A Compound III-3 concentration of 500 nM inhibited IL-2 induction by greater than 80% (Fig. 23B).

CCSCc1ccc2c(c1)c1c3c(c4c5cc(CSCC)ccc5n5c4c1n2C1CC(O)(C(=O)OC)C5(C)O1)CNC3=O (stereo not shown) [III-3]
potency in mediating survival in motor neuron-enriched cultures relative to K-252a [1]: approximately fivefold
concentration at which the survival effect reached a plateau ([2]; 10% serum (Fig. 16)): around 1 µM
SG neurons alive ([2]; after 48 h, Compound III-3 1 µM, NGF 20 ng/ml, 10% serum): 94%
SG survival ([2]; after four days): 83%
concentration at which the survival effect reached a plateau ([3]; 10% serum (Fig. 16)): around 1 µM
survival of CNTF-dependent ciliary ganglion (CG) neurons ([3]; after 24 h, CNTF 10 ng/ml, 10% serum): 76%
CG survival ([3]; after four days): 58%
IC50 ([4]; Homo sapiens, THP-1, THP-1 cells, medium containing 10% fetal bovine serum, read-out: IC50 inhibition of the induction of IL-1): 267 nM
IC50 ([4]; Homo sapiens, THP-1, THP-1 cells, serum-free medium (500 µg/ml BSA), cytokine not named, read-out: IC50 in serum-free medium): 23 nM
IC50 ([4]; THP-1 cells, medium containing 10% fetal bovine serum, read-out: IC50 inhibition of the induction of IL-1): 269 nM
inhibition at 0.5 µM [5]: 93%
inhibition at 0.5 µM ([6]; Jurkat, 500 nM, 1 hr treatment prior to induction (Fig. 23B)): > 80%
IC50 ([6]; Jurkat cells (Fig. 23C)): 139 nM
